Holding throughout (assay): Minimum inhibitory concentration, agar dilution test (Denley Multipoint inoculator, Isosensitest medium)
Common to all, as to format: cell-based
For orientation: In agar dilution, organisms are placed on agar that contains the substance at set levels.

One assay has as its system E. coli 4418. Particulars: Escherichia coli. The text has this:
(§1) The MIC values of some of the compounds according to the invention are given in the following table. | Minimum inhibitory concentration mcg/ml^(x) | ^(x) Agar dilution test/Denley Multipoint inoculator Isosensitest | medium

The test system of the next assay is E. coli 455/7. The conditions noted are these: Escherichia coli.
Source text: as §1

Another assay relates to E. coli Neum. The conditions noted are these: Escherichia coli.
Source text: as §1

A further assay has as its system Klebsiella pneum. 63.
Source text: as §1

The test system of another assay is Klebsiella pneum. 8085.
Source text: as §1

For a further assay, the system named is Klebsiella spec. 6179.
Source text: as §1

In a further assay the test system is Proteus vulg. 1017.
Source text: as §1

The next assay deals with Pseudomonas aerug. W.
Source text: as §1

The next assay relates to Staphylococcus aur. 133.
Source text: as §1

For a further assay, the system named is Staphylococcus aur. 1756.
Source text: as §1

Assay [1] deals with Streptococcus faecalis 27101. Particulars: Enterococcus faecalis.
Source text: as §1

In brackets after ≈: the same amount, converted by molar mass.

As a reminder, the MIC is the smallest concentration in the dilution series that meets the test's criterion for growth inhibition. Low readings indicate inhibition by little substance, high ones a need for much substance. With `CN1CCN(c2c(F)cc3c(=O)c(C(=O)O)cn(-c4ccc(F)cc4)c3c2F)CC1` [Example 1, 6,8-Difluoro-1,4-dihydro-4-oxo-1-(4-fluorophenyl)-7-(4-methyl-1-piperazinyl)-quinoline-3-carboxylic acid], the MIC stood at 0.25 µg/mL (≈ 0.599 µM) against E. coli 4418; 16 µg/mL (≈ 38.3 µM) in the assay on E. coli 455/7; 0.125 µg/mL (≈ 0.299 µM) against E. coli Neum.; 0.25 µg/mL (≈ 0.599 µM) in the assay on Klebsiella pneum. 63; 0.125 µg/mL (≈ 0.299 µM) against Klebsiella pneum. 8085; 0.5 µg/mL (≈ 1.2 µM) in the assay with Klebsiella spec. 6179. Also, the MIC turned out to be 0.5 µg/mL (≈ 1.2 µM) against Proteus vulg. 1017; 8 µg/mL (≈ 19.2 µM) against Pseudomonas aerug. W.; 0.5 µg/mL (≈ 1.2 µM) in the assay with Staphylococcus aur. 133; 0.5 µg/mL (≈ 1.2 µM) with Staphylococcus aur. 1756; 4 µg/mL (≈ 9.58 µM) in [1].

As to `CCn1cc(C(=O)O)c(=O)c2cc(F)c(N3CCNCC3)cc21` [Norfloxacin, reference compound], the MIC came out at 0.125 µg/mL (≈ 0.391 µM) against E. coli 4418; 8 µg/mL (≈ 25.1 µM) in the assay with E. coli 455/7; 0.125 µg/mL (≈ 0.391 µM) in the assay on E. coli Neum.; 0.25 µg/mL (≈ 0.783 µM) against Klebsiella pneum. 63; 0.25 µg/mL (≈ 0.783 µM) with Klebsiella pneum. 8085; 2 µg/mL (≈ 6.26 µM) in the assay on Klebsiella spec. 6179. The MIC amounted to 0.06 µg/mL (≈ 0.188 µM) in the assay with Proteus vulg. 1017; 2 µg/mL (≈ 6.26 µM) in the assay with Pseudomonas aerug. W.; 1 µg/mL (≈ 3.13 µM) against Staphylococcus aur. 133; 1 µg/mL (≈ 3.13 µM) with Staphylococcus aur. 1756; 1 µg/mL (≈ 3.13 µM) in assay [1].

As for `CC1CN(c2c(F)cc3c(=O)c(C(=O)O)cn(-c4ccc(F)cc4)c3c2F)CCN1` (centres unmarked) [Example 2, 6,8-Difluoro-1,4-dihydro-4-oxo-1-(4-fluorophenyl)-7-(3-methyl-1-piperazinyl)-quinoline-3-carboxylic acid], the minimal inhibitory concentration (MIC) in the assay on E. coli 4418 was 0.125 µg/mL (≈ 0.299 µM); in the assay with E. coli 455/7 it was 8 µg/mL (≈ 19.2 µM); against E. coli Neum. it was roughly 0.015 µg/mL (≈ 0.0359 µM); against Klebsiella pneum. 63, 0.125 µg/mL (≈ 0.299 µM); against Klebsiella pneum. 8085, 0.06 µg/mL (≈ 0.144 µM); against Klebsiella spec. 6179 it was 0.25 µg/mL (≈ 0.599 µM). Further, the MIC amounted to 0.25 µg/mL (≈ 0.599 µM) in the assay on Proteus vulg. 1017; 4 µg/mL (≈ 9.58 µM) against Pseudomonas aerug. W.; 0.5 µg/mL (≈ 1.2 µM) in the assay on Staphylococcus aur. 133; 0.5 µg/mL (≈ 1.2 µM) against Staphylococcus aur. 1756; 4 µg/mL (≈ 9.58 µM) in [1].

Consider `O=C(O)c1cn(-c2ccc(F)cc2)c2c(F)c(N3CCNCC3)c(F)cc2c1=O` [Example 3, 6,8-Difluoro-1,4-dihydro-4-oxo-1-(4-fluorophenyl)-7-(1-piperazinyl)-quinoline-3-carboxylic acid], for which the MIC in the assay with E. coli 4418 is 0.06 µg/mL (≈ 0.149 µM); in the assay with E. coli 455/7, 8 µg/mL (≈ 19.8 µM); against E. coli Neum. it was roughly 0.015 µg/mL (≈ 0.0372 µM); with Klebsiella pneum. 63, 0.06 µg/mL (≈ 0.149 µM); against Klebsiella pneum. 8085, roughly 0.015 µg/mL (≈ 0.0372 µM); in the assay with Klebsiella spec. 6179 it was 0.06 µg/mL (≈ 0.149 µM). Moreover, the minimum inhibitory concentration (MIC) against Proteus vulg. 1017 worked out at 0.03 µg/mL (≈ 0.0744 µM); against Pseudomonas aerug. W., 1 µg/mL (≈ 2.48 µM); in the assay with Staphylococcus aur. 133, 0.25 µg/mL (≈ 0.62 µM); with Staphylococcus aur. 1756, 0.25 µg/mL (≈ 0.62 µM); in assay [1] it was 4 µg/mL (≈ 9.92 µM).

Values taken from US4981854A, “A-aryl-4-quinolone-3-carboxylic acids” (Bayer Aktiengesellschaft, priority 1985, dated 1991).
